Laboratory results published in US20150355163A1, “T-TYPE CALCIUM CHANNEL INHIBITORS FOR TREATMENT OF CANCER” (TAU THERAPEUTICS LLC, priority 2013, published 2015).
“Also recorded” adds a separate entry of the source. Where two headings read alike, the source gives them in different places.

Experiments:
T-type Ca^2+ channel [1] = tested on: T1, T-type Ca^2+ channel; assay: Inhibition of T-type Ca^2+ channel activity in a cell with the membrane potential held (patch-clamp); assay type: cell-based; details: in words; for inhibition of T-type Ca^2+ channel activity: cell membrane potential about −90 mV
T1 construct: other: cell membrane potential about −90 mV, in words; other: in words; selectivity for the −90 mV state relative to −40 mV; other: cell membrane potential about −30 mV to −60 mV
Excerpt: This disclosure further provides methods of identifying compounds that inhibit T-type Ca^2+ channel activity in a cell when the cell membrane potential is about −90 mV. These methods include determining the ability of a compound to inhibit T-type Ca^2+ channel activity in a cell when the cell membrane potential is held at about −90 mV. The membrane potential can be held at about −90 mV by techniques known in the art, such as the patch-clamp technique. The ability of a compound to inhibit T-type Ca^2+ channel activity in a cell when the cell membrane potential is about −90 mV can be determined, for example, by determining the ability of the compound to prevent growth factor-stimulated calcium entry into the cell. Calcium entry into the cell can be determined by measuring increases in levels of intracellular calcium, such as by use of a calcium sensitive fluorescent dye.
This disclosure further provides methods of identifying compounds that inhibit T-type Ca^2+ channel activity in a cell when the cell membrane potential is about −90 mV. Such compounds can be identified by measuring inhibition of T-type Ca^2+ channel activity in a cell using standard electrophysiological methods such as patch clamp or by measuring the ability of a pharmaceutical agent to block calcium entry into a cell, such as a cancer cell, when that cell is stimulated by a mitogen, such as a growth factor. Such methods are disclosed, for example, in Densmore, et al., FEBS Lett. 312:161-164 (1992); Haverstick, et al., Mol. Biol. Cell 4:173-184 (1993); and Gomora et al., J. Pharmacol. Exp. Ther. 292:96-103 (2000), the contents of which are incorporated by reference. Calcium entry can be determined by methods such as intracellular entrapment of a Ca^2+ sensitive fluorescent dye.
In some embodiments, the cell membrane potential can be controlled using a patch-clamp technique. In some embodiments cell membrane potential can be controlled using any other technique described herein or known in the art.

cancer cells = assay: Cancer cell proliferation; assay type: cell-based; details: in words
T-type Ca^2+ channel [2] = details: ratio; cited from earlier work
T-type Ca^2+ channel [3] = tested on: T1, T-type Ca^2+ channel; details: cited from earlier work; for IC50: read-out: IC50 for inhibiting T-type Ca^2+ channel activity; for potency for inhibition of the T-type calcium channel: in words
human glioblastoma = details: seven day course of mibefradil, then five day course of temozolomide; cited from earlier work
CYP 450 3A4 = CYP 450 3A4 (Homo sapiens, UniProt P08684); details: in words; cited from earlier work
[4] = used by almost a million patients; cited from earlier work

Sequence of CYP 450 3A4 (P08684 whole entry): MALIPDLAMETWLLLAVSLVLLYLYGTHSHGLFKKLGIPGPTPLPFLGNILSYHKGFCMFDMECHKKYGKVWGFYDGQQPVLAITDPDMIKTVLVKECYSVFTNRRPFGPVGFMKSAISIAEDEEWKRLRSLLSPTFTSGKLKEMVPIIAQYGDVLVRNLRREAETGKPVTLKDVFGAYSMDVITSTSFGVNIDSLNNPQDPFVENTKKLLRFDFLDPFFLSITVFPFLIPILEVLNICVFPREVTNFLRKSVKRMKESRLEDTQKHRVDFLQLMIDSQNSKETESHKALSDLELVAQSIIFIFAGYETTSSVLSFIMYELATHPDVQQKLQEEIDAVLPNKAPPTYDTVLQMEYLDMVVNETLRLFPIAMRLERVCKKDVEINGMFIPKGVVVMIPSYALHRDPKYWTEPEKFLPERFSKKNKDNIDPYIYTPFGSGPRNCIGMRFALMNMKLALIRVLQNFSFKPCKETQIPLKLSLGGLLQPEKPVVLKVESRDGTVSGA

| SMILES | inhibition of T-type Ca^2+ channel activity (T-type Ca^2+ channel [1]) | selectivity for the −90 mV state relative to −40 mV (T-type Ca^2+ channel [1]) | anti-proliferative activity (cancer cells) | potency for inhibition of the T-type calcium channel (T-type Ca^2+ channel [3]) | also measured |
| --- | --- | --- | --- | --- | --- |
| COc1ccc(CCN2CCC[C@H]2COC(c2ccccc2)c2ccc(Cl)cc2)cc1 (stereo partly drawn) [TH-1177] | inhibit |  |  |  |  |
| COCC(=O)O[C@]1(CCN(C)CCCc2nc3ccccc3[nH]2)CCc2cc(F)ccc2[C@@H]1C(C)C [mibefradil] | inhibit | preferentially blocks the −90 mV state | inhibit cancer cell proliferation |  | anti-proliferative activity (cancer cells; listed as Mibefradil): antiproliferative; preference for blocking channels at about −30 mV to −60 mV over −90 mV (T-type Ca^2+ channel [2]): 10 to 1; IC50 (T-type Ca^2+ channel [3]; cell membrane potential about −30 mV to −60 mV): ≥ 100 nM; IC50 (T-type Ca^2+ channel [3]; cell membrane potential of −80 mV to −90 mV): ~1000 nM; effect on the cytotoxic effect of temozolomide (human glioblastoma): significantly increased; also recorded: restored the sensitivity to temozolomide; inhibition of CYP 450 3A4 (CYP 450 3A4): inhibition; tolerability [4]: remarkably well tolerated |
| CC(C)c1ccc(CC(=O)N[C@H](C)c2ccc(OCC(F)(F)F)cn2)cc1 [MK-8998] |  | decreased selectivity | without anti-proliferative activity; also recorded: little or no effect | high potency |  |
| O=c1[nH]c2cc(Cl)ccc2n1C1CCN(CCCC(c2ccc(F)cc2)c2ccc(F)cc2)CC1 [chlopimozide] |  |  | anti-proliferative |  |  |
| C[C@@H](NC(=O)Cc1ccc(C2CC2)cc1)c1ccc(OCC(F)(F)F)cn1 [TTA-A2] |  | decreased selectivity | without anti-proliferative activity; also recorded: little or no effect | high potency |  |
